Data from patent publication US20240270762A1, “PENICILLIN-BINDING PROTEIN INHIBITORS” (priority 2021, published 2024).
Values after ≈ are worked out from the molar mass of the structure shown.

What was measured:
E. coli AG100A = assay: Broth microdilution MIC in CAMHB; assay type: cell-based; settings: Escherichia coli, read-out: MIC E. coli AG100A
[1] = tested on: N. gonorrhoeae ATCC 49226; assay: Liquid broth MIC in Fastidious broth; settings: Neisseria gonorrhoeae, ATCC49226, read-out: Minimum Inhibitory Concentration (MIC), N. gonorrhoeae ATCC 49226
Procedure: Additional antibacterial testing of the series was performed in 8 reference strains of N. gonorrhoeae (ATCC 49226, FA1090, MS 11, WHO G, WHO L, WHO M, WHO K, WHO X, WHO Z, WHO Q, CDC-0197). ATCC 49226, FA1090, MS11, WHO G, WHO L, and WHO M produce wild type or wild-type like PBP2. WHO K, WHO X, WHO Z, WHO Q, and CDC-0197 produce mosaic PBP2. Liquid broth-based assays were used for antibacterial testing of PBP inhibitors in Neisseria gonorrhoeae. Briefly, cryo-preserved bacterial cultures of clinical strains were streaked for isolation on Chocolate Agar (72 g/L (2×) GC Agar Base (BD #228950) and 2% (2×) Hemoglobin was autoclaved at 121° C. for 20 minutes to sterilize. Once cooled to ˜50° C. the 2×GC Agar Base and 2× Hemoglobin solutions are combined and 1% IsoVitaleX Enrichment (BD #211876) was added to the solution). Strains were incubated at 36° C. and 5% CO2 to allow growth of colonies, 24 hours before inoculum preparation. 2-fold serial dilutions of test compounds were conducted in a 96 well plate with a final volume of 75 μL per well at 2-fold the final desired concentration in Fastidious broth (Remel #R07664). For preparation of assay inoculum, a direct suspension was prepared by aseptically swabbing 10-15 colonies from agar plates into culture tubes containing 2 mL of fresh sterile saline. After the dilution plates were set up, direct suspensions were then diluted in a cuvette containing sterile saline and the optical density was measured at 600 nm. Inocula were diluted such that 75 μL of this culture in Fastidious broth results in a starting bacterial concentration of 5×10^5 CFU/mL when added to the dilution plates. The plates were incubated for ˜24 hours at 36° C. and 5% CO2.

N. gonorrhoeae FA1090 = assay: Liquid broth MIC in Fastidious broth; settings: Neisseria gonorrhoeae, FA1090, read-out: Minimum Inhibitory Concentration (MIC), N. gonorrhoeae FA 1090
K. pneumoniae 848844 = assay: microbe, parasite or virus in culture; assay type: cell-based; settings: Klebsiella pneumoniae, 848844, read-out: MIC K. pneumoniae 848844
E. coli ATCC 25922 = assay: microbe, parasite or virus in culture; assay type: cell-based; settings: Escherichia coli, ATCC25922, read-out: MIC E. coli 25922
[2] = target: T1, PBP3 from Pseudomonas aeruginosa (PAO1) (Pseudomonas aeruginosa, UniProt G3XD46); assay: Bocillin-FL fluorescence polarization competition binding, P. aeruginosa PBP3; settings: Binding affinity to P. aeruginosa PBP3; fluorescence polarization competition binding assay using Bocillin-FL; read-out: P. aeruginosa PBP3 Potency
T1 construct: made in house
T1 sequence (G3XD46 whole entry): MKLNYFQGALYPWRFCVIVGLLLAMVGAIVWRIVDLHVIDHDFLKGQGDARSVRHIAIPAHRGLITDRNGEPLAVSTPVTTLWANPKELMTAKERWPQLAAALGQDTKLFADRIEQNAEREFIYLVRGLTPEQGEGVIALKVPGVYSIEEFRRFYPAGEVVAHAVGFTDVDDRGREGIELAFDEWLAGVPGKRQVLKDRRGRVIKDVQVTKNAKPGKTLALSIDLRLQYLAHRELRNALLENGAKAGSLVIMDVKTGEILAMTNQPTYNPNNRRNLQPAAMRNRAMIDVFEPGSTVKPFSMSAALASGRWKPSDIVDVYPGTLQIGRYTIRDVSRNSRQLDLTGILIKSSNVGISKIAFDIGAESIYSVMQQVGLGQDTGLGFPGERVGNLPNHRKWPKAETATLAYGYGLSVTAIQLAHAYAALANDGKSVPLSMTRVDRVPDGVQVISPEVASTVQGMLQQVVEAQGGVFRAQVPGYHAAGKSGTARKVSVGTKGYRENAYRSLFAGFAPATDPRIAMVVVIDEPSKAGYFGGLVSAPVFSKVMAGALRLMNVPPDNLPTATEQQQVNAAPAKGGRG
Method in brief: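 Purified PBPs pre-incubated with inhibitor (E. coli PBP3 1.5 μM, 30 min; P. aeruginosa PBP3 0.75 μM, A. baumannii PBP1a 1 μM and PBP3 0.2 μM, 15 min), then Bocillin-FL 0.1 μM (0.05 μM for PBP1a) added; FP read up to 60 min. EC50 = concentration halving bound Bocillin-FL.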

P. aeruginosa ATCC 27853 = assay: microbe, parasite or virus in culture; assay type: cell-based; settings: Pseudomonas aeruginosa, ATCC27853, read-out: MIC P. aeruginosa ATCC 27853
A. baumannii ATCC 19606 = assay: microbe, parasite or virus in culture; assay type: cell-based; settings: Acinetobacter baumannii, ATCC19606, read-out: MIC, A. baumannii ATCC 19606
N. gonorrhoeae WHO Q = assay: Liquid broth MIC in Fastidious broth; settings: Neisseria gonorrhoeae, read-out: Minimum Inhibitory Concentration (MIC), N. gonorrhoeae WHO Q
P. aeruginosa ATCC 35151 = assay: microbe, parasite or virus in culture; assay type: cell-based; settings: Pseudomonas aeruginosa, ATCC35151, read-out: MIC P. aeruginosa ATCC 35151
K. pneumoniae SI-117 = assay: microbe, parasite or virus in culture; assay type: cell-based; settings: Klebsiella pneumoniae, SI117, read-out: MIC K. pneumoniae SI-117
N. gonorrhoeae CDC-0197 = assay: Liquid broth MIC in Fastidious broth; settings: Neisseria gonorrhoeae, CDC0197, read-out: Minimum Inhibitory Concentration (MIC), N. gonorrhoeae CDC-0197
E. coli 901C = assay: microbe, parasite or virus in culture; assay type: cell-based; settings: Escherichia coli, read-out: MIC E. coli 901C
N. gonorrhoeae WHO L = assay: Liquid broth MIC in Fastidious broth; settings: Neisseria gonorrhoeae, read-out: Minimum Inhibitory Concentration (MIC), N. gonorrhoeae WHO L
Procedure: Liquid broth-based assays were used for antibacterial testing of PBP inhibitors in Neisseria gonorrhoeae. Briefly, cryo-preserved bacterial cultures of clinical strains were streaked for isolation on Chocolate Agar (72 g/L (2×) GC Agar Base (BD #228950) and 2% (2×) Hemoglobin was autoclaved at 121° C. for 20 minutes to sterilize. Once cooled to ˜50° C. the 2×GC Agar Base and 2× Hemoglobin solutions are combined and 1% IsoVitaleX Enrichment (BD #211876) was added to the solution). Strains were incubated at 36° C. and 5% CO2 to allow growth of colonies, 24 hours before inoculum preparation. 2-fold serial dilutions of test compounds were conducted in a 96 well plate with a final volume of 75 μL per well at 2-fold the final desired concentration in Fastidious broth (Remel #R07664). For preparation of assay inoculum, a direct suspension was prepared by aseptically swabbing 10-15 colonies from agar plates into culture tubes containing 2 mL of fresh sterile saline. After the dilution plates were set up, direct suspensions were then diluted in a cuvette containing sterile saline and the optical density was measured at 600 nm. Inocula were diluted such that 75 μL of this culture in Fastidious broth results in a starting bacterial concentration of 5×10^5 CFU/mL when added to the dilution plates. The plates were incubated for ˜24 hours at 36° C. and 5% CO2.

K. pneumoniae UMM = assay: microbe, parasite or virus in culture; assay type: cell-based; settings: Klebsiella pneumoniae, read-out: MIC K. pneumoniae UMM
N. gonorrhoeae WHO K = assay: Liquid broth MIC in Fastidious broth; settings: Neisseria gonorrhoeae, read-out: Minimum Inhibitory Concentration (MIC), N. gonorrhoeae WHO K

| SMILES | MIC (E. coli AG100A) | MIC [1] | MIC (N. gonorrhoeae FA1090) | MIC (K. pneumoniae 848844) | MIC (E. coli ATCC 25922) | IC50 [2] | MIC (P. aeruginosa ATCC 27853) | MIC (A. baumannii ATCC 19606) | MIC (N. gonorrhoeae WHO Q) | MIC (P. aeruginosa ATCC 35151) | MIC (K. pneumoniae SI-117) | MIC (N. gonorrhoeae CDC-0197) | MIC (E. coli 901C) | MIC (N. gonorrhoeae WHO L) | MIC (K. pneumoniae UMM) | MIC (N. gonorrhoeae WHO K) |
| --- | --- | --- | --- | --- | --- | --- | --- | --- | --- | --- | --- | --- | --- | --- | --- | --- |
| CS(=O)(=O)N1CCN(C(=O)NC(C(=O)N[C@H]2Cc3cccc(C(=O)O)c3OB2O)c2ccc(P(=O)(O)O)c(F)c2O)C1=O (stereo partly drawn) [Example 48, (3R)-3-(2-(3-fluoro-2-hydroxy-4-phosphonophenyl)-2-(3-(methylsulfonyl)-2-oxoimidazolidine-1-carboxamido)acetamido)-2-hydroxy-3,4-dihydro-2H-benzo[e][1,2]oxaborinine-8-carboxylic acid] | > 128 µg/mL | < 1 µg/mL | < 1 µg/mL | > 128 µg/mL | > 128 µg/mL | 10 to 50 µM | > 128 µg/mL | > 128 µg/mL | 1 to 2 µg/mL (≈ 1.55 to 3.1 µM) | 8 to 16 µg/mL (≈ 12.4 to 24.8 µM) | > 128 µg/mL | 1 to 2 µg/mL (≈ 1.55 to 3.1 µM) | < 1 µg/mL | 4 to 8 µg/mL (≈ 6.21 to 12.4 µM) | > 128 µg/mL | 4 to 8 µg/mL (≈ 6.21 to 12.4 µM) |
| O=C(O)c1cccc2c1OB(O)[C@@H](NC(=O)C(NC(=O)[C@H]1CCCN1)c1ccc(P(=O)(O)O)cc1)C2 (stereo partly drawn) [Example 52, (3R)-2-hydroxy-3-(2-(4-phosphonophenyl)-2-((R)-pyrrolidine-2-carboxamido)acetamido)-3,4-dihydro-2H-benzo[e][1,2]oxaborinine-8-carboxylic acid] | 32 to 64 µg/mL (≈ 61.9 to 124 µM) | 16 to 32 µg/mL (≈ 30.9 to 61.9 µM) | 16 to 32 µg/mL (≈ 30.9 to 61.9 µM) | > 128 µg/mL | > 128 µg/mL | 50 to 250 µM | > 128 µg/mL | > 128 µg/mL | 16 to 32 µg/mL (≈ 30.9 to 61.9 µM) | 8 to 16 µg/mL (≈ 15.5 to 30.9 µM) | 32 to 64 µg/mL (≈ 61.9 to 124 µM) | 16 to 32 µg/mL (≈ 30.9 to 61.9 µM) | 32 to 64 µg/mL (≈ 61.9 to 124 µM) | 4 to 8 µg/mL (≈ 7.73 to 15.5 µM) | 32 to 64 µg/mL (≈ 61.9 to 124 µM) | 16 to 32 µg/mL (≈ 30.9 to 61.9 µM) |
| O=C1CC[C@H](C(=O)NC(C(=O)N[C@H]2Cc3cccc(C(=O)O)c3OB2O)c2ccc(P(=O)(O)O)cc2)N1 (stereo partly drawn) [Example 53, (3R)-2-hydroxy-3-(2-((R)-5-oxopyrrolidine-2-carboxamido)-2-(4-phosphonophenyl)acetamido)-3,4-dihydro-2H-benzo[e][1,2]oxaborinine-8-carboxylic acid] | > 128 µg/mL | 1 to 2 µg/mL (≈ 1.88 to 3.76 µM) | 1 to 2 µg/mL (≈ 1.88 to 3.76 µM) | > 128 µg/mL | > 128 µg/mL | 10 to 50 µM | > 128 µg/mL | > 128 µg/mL | 16 to 32 µg/mL (≈ 30.1 to 60.2 µM) | 8 to 16 µg/mL (≈ 15.1 to 30.1 µM) | > 128 µg/mL | 4 to 8 µg/mL (≈ 7.53 to 15.1 µM) | 8 to 16 µg/mL (≈ 15.1 to 30.1 µM) | 16 to 32 µg/mL (≈ 30.1 to 60.2 µM) | > 128 µg/mL | 16 to 32 µg/mL (≈ 30.1 to 60.2 µM) |
| O=C(O)c1cccc2c1OB(O)[C@@H](NC(=O)C(NC(=O)N1CCCNC1=O)c1ccc(P(=O)(O)O)cc1)C2 (stereo partly drawn) [Example 56, (3R)-2-hydroxy-3-(2-(2-oxohexahydropyrimidine-1-carboxamido)-2-(4-phosphonophenyl)acetamido)-3,4-dihydro-2H-benzo[e][1,2]oxaborinine-8-carboxylic acid] | 32 to 64 µg/mL (≈ 58.6 to 117 µM) | 1 to 2 µg/mL (≈ 1.83 to 3.66 µM) | < 1 µg/mL | > 128 µg/mL | > 128 µg/mL | < 10 µM | > 128 µg/mL | > 128 µg/mL | 4 to 8 µg/mL (≈ 7.32 to 14.6 µM) | < 1 µg/mL | > 128 µg/mL | 4 to 8 µg/mL (≈ 7.32 to 14.6 µM) | 2 to 4 µg/mL (≈ 3.66 to 7.32 µM) | 16 to 32 µg/mL (≈ 29.3 to 58.6 µM) | > 128 µg/mL | 16 to 32 µg/mL (≈ 29.3 to 58.6 µM) |
| O=C(O)c1cccc2c1OB(O)[C@@H](NC(=O)C(NC(=O)N1CCCC1=O)c1ccc(P(=O)(O)O)cc1)C2 (stereo partly drawn) [Example 57, (3R)-2-hydroxy-3-(2-(2-oxopyrrolidine-1-carboxamido)-2-(4-phosphonophenyl)acetamido)-3,4-dihydro-2H-benzo[e][1,2]oxaborinine-8-carboxylic acid] | 32 to 64 µg/mL (≈ 60.2 to 120 µM) | < 1 µg/mL | < 1 µg/mL | > 128 µg/mL | > 128 µg/mL | < 10 µM | > 128 µg/mL | > 128 µg/mL | 1 to 2 µg/mL (≈ 1.88 to 3.76 µM) | 2 to 4 µg/mL (≈ 3.76 to 7.53 µM) | > 128 µg/mL | < 1 µg/mL | < 1 µg/mL | 16 to 32 µg/mL (≈ 30.1 to 60.2 µM) | 32 to 64 µg/mL (≈ 60.2 to 120 µM) | 4 to 8 µg/mL (≈ 7.53 to 15.1 µM) |
| NS(=O)(=O)NC(C(=O)N[C@H]1Cc2cccc(C(=O)O)c2OB1O)c1ccc(P(=O)(O)O)cc1 (stereo partly drawn) [Example 58, (3R)-2-hydroxy-3-(2-(4-phosphonophenyl)-2-(sulfamoylamino)acetamido)-3,4-dihydro-2H-benzo[e][1,2]oxaborinine-8-carboxylic acid] | > 128 µg/mL | 16 to 32 µg/mL (≈ 32.1 to 64.1 µM) | 16 to 32 µg/mL (≈ 32.1 to 64.1 µM) | > 128 µg/mL | > 128 µg/mL | > 250 µM | > 128 µg/mL | > 128 µg/mL | 16 to 32 µg/mL (≈ 32.1 to 64.1 µM) | > 128 µg/mL | > 128 µg/mL | 16 to 32 µg/mL (≈ 32.1 to 64.1 µM) | > 128 µg/mL | 16 to 32 µg/mL (≈ 32.1 to 64.1 µM) | > 128 µg/mL | 16 to 32 µg/mL (≈ 32.1 to 64.1 µM) |
| CS(=O)(=O)NC(C(=O)N[C@H]1Cc2cccc(C(=O)O)c2OB1O)c1ccc(P(=O)(O)O)cc1 (stereo partly drawn) [Example 59, (3R)-2-hydroxy-3-(2-(methylsulfonamido)-2-(4-phosphonophenyl)acetamido)-3,4-dihydro-2H-benzo[e][1,2]oxaborinine-8-carboxylic acid] | > 128 µg/mL | 16 to 32 µg/mL (≈ 32.1 to 64.2 µM) | 16 to 32 µg/mL (≈ 32.1 to 64.2 µM) | > 128 µg/mL | > 128 µg/mL | > 250 µM | > 128 µg/mL | > 128 µg/mL | 16 to 32 µg/mL (≈ 32.1 to 64.2 µM) | 32 to 64 µg/mL (≈ 64.2 to 128 µM) | > 128 µg/mL | 16 to 32 µg/mL (≈ 32.1 to 64.2 µM) | 32 to 64 µg/mL (≈ 64.2 to 128 µM) | 16 to 32 µg/mL (≈ 32.1 to 64.2 µM) | > 128 µg/mL | 16 to 32 µg/mL (≈ 32.1 to 64.2 µM) |
| CC(C)S(=O)(=O)NC(C(=O)N[C@H]1Cc2cccc(C(=O)O)c2OB1O)c1ccc(P(=O)(O)O)cc1 (stereo partly drawn) [Example 60, (3R)-2-hydroxy-3-(2-((1-methylethyl)sulfonamido)-2-(4-phosphonophenyl)acetamido)-3,4-dihydro-2H-benzo[e][1,2]oxaborinine-8-carboxylic acid] | > 128 µg/mL | 16 to 32 µg/mL (≈ 30.4 to 60.8 µM) | 4 to 8 µg/mL (≈ 7.6 to 15.2 µM) | > 128 µg/mL | > 128 µg/mL | 50 to 250 µM | > 128 µg/mL | > 128 µg/mL | 16 to 32 µg/mL (≈ 30.4 to 60.8 µM) | 32 to 64 µg/mL (≈ 60.8 to 122 µM) | > 128 µg/mL | 16 to 32 µg/mL (≈ 30.4 to 60.8 µM) | 32 to 64 µg/mL (≈ 60.8 to 122 µM) | 16 to 32 µg/mL (≈ 30.4 to 60.8 µM) | > 128 µg/mL | 16 to 32 µg/mL (≈ 30.4 to 60.8 µM) |
